Our source for the IC50 values is ChEMBL document CHEMBL5625242, “Discovery of brain permeable 2-Azabicyclo[2.2.2]octane sulfonamides as a novel class of presenilin-1 selective γ-secretase inhibitors” (Eur J Med Chem, 2023).

What all share (assay type): cell-based
Assay [1] in a line: Inhibition of human PSEN2/APH1A expressed in MEF cells with Psen1/2 double knockout/Aph1ABC triple knockout by ELISA. (ELISA stands for enzyme-linked immunosorbent assay.)
Assay [2] is described as follows: Inhibition of human PSEN1/APH1B expressed in MEF cells with Psen1/2 double knockout/Aph1ABC triple knockout by ELISA.
The nature of assay [3]: Inhibition of human PSEN2/APH1B expressed in MEF cells with Psen1/2 double knockout/Aph1ABC triple knockout by ELISA.
The nature of assay [4]: Inhibition of human PSEN1/APH1A expressed in MEF cells with Psen1/2 double knockout/Aph1ABC triple knockout by ELISA.

SMILES strings stand for the structures. pIC50: −log10 of the molar value.

Regarding `O=S(=O)(c1ccc(Cl)cc1)N1[C@H]2CC[C@@H]([C@H]1c1ccc(F)c(F)c1)[C@@H](O)C2` (racemic), the pIC50 (usually the IC50 on a negative log10 scale, so that one unit is a factor of ten) in assay [1] is less than 5.00; in assay [2], 7.24; in assay [3] it was less than 5.00; in assay [4], 6.53.

For the compound `COCC(=O)Nc1ccc([C@@H]2[C@@H]3CC[C@@H](C[C@@H]3O)N2S(=O)(=O)c2ccc(Cl)cc2)cc1` (racemic), the pIC50 is 5.85 in assay [1], 7.28 in assay [2], 5.70 in assay [3] and 6.68 in assay [4].

As to `Cc1ccc(S(=O)(=O)N2[C@H]3CC[C@@H]([C@H]2c2ccc(C(F)(F)F)cc2)[C@@H](O)C3)cc1` (racemic), the pIC50 was less than 5.10 in assay [1], 7.30 in assay [2], less than 5.10 in assay [3] and 6.68 in assay [4].

For the compound `O=S(=O)(c1ccc(Cl)s1)N1[C@H]2CC[C@@H]([C@H]1c1ccc(Cl)cc1)[C@@H](O)C2` (racemic), the negative logarithm of the IC50 (pIC50) in assay [1] is less than 5.70; in assay [2], 7.24; in assay [3], less than 5.70; in assay [4] it was 6.70.

Regarding `CC(=O)Nc1ccc([C@@H]2[C@@H]3CC[C@@H](CC3=O)N2S(=O)(=O)c2ccc(Cl)cc2)cc1` (racemic), the pIC50 in assay [1] was less than 5.00; in assay [2] it was 6.15; in assay [3] it was less than 5.00; in assay [4], 5.20.

For `CC(=O)Nc1ccc([C@@H]2[C@@H]3CC[C@@H](CC3=O)N2S(=O)(=O)c2ccc(Cl)s2)cc1` (racemic), the pIC50 in assay [1] was 5.07; in assay [2], 6.41; in assay [3], 5.10; in assay [4] it was 5.52.

Turning to `N#Cc1ccc([C@@H]2[C@@H]3CC[C@@H](CC3=O)N2S(=O)(=O)c2ccc(Cl)cc2)c(F)c1` (racemic), the pIC50 is 5.47 in assay [1], 6.88 in assay [2], 5.12 in assay [3] and 6.16 in assay [4].

For the compound `N#Cc1ccc([C@@H]2[C@@H]3CC[C@@H](C[C@H]3O)N2S(=O)(=O)c2ccc(Cl)cc2)cn1`, the negative-log IC50 (pIC50) in assay [1], in assay [2], in assay [3] and in assay [4] was less than 5.00 in each case.

Take `O=S(=O)(c1ccc(Cl)cc1)N1[C@H]2CC[C@@H]([C@H]1c1ccccc1)[C@@H](O)C2` (racemic): the negative-log IC50 (pIC50) was 6.37 in assay [1], 7.85 in assay [2], 6.22 in assay [3] and 6.99 in assay [4].

`O=S(=O)(c1ccc(Cl)cc1)N1[C@H]2CC[C@@H]([C@H]1c1ccc(C(F)(F)F)nc1)[C@@H](O)C2` (racemic): the negative logarithm of the IC50 (pIC50) is less than 5.70 in assay [1], 7.42 in assay [2], less than 5.70 in assay [3] and 6.58 in assay [4].

As to `O=C1C[C@@H]2CC[C@H]1[C@@H](c1ccccc1Cl)N2S(=O)(=O)c1ccc(Cl)cc1` (racemic), the pIC50 in assay [1] is less than 5.00; in assay [2], 6.41; in assay [3], less than 5.00; in assay [4] it was 5.58.

`N#Cc1ccc([C@@H]2[C@@H]3CC[C@@H](C[C@@H]3O)N2S(=O)(=O)c2ccc(Cl)cc2)cc1` (racemic): the pIC50 in assay [1] is 6.12; in assay [2], 7.92; in assay [3] it was 6.20; in assay [4] it was 7.19.

Turning to `O=C1C[C@@H]2CC[C@H]1[C@@H](c1ccc(Cl)cc1)N2S(=O)(=O)c1ccc(Cl)s1` (racemic), the negative logarithm of the IC50 (pIC50) in assay [1] was less than 5.00; in assay [2], 6.55; in assay [3], less than 5.00; in assay [4], 5.65.

With `N#Cc1ccc([C@@H]2[C@@H]3CC[C@@H](CC3=O)N2S(=O)(=O)c2ccc(Cl)cc2)cc1` (racemic), the negative-log IC50 (pIC50) in assay [1] was less than 5.10; in assay [2], 6.63; in assay [3] it was less than 5.10; in assay [4], 6.05.

On to `O=C1C[C@@H]2CC[C@H]1[C@@H](c1ccc(C(F)(F)F)cc1)N2S(=O)(=O)c1ccc(F)cc1` (racemic), for which the pIC50 was less than 5.00 in assay [1], 6.68 in assay [2], less than 5.00 in assay [3] and 6.00 in assay [4].

In the case of `O=C1C[C@@H]2CC[C@H]1[C@@H](c1ccc(C(F)(F)F)nc1)N2S(=O)(=O)c1ccc(Cl)s1` (racemic), the negative-log IC50 (pIC50) in assay [1] is less than 5.00; in assay [2], 6.23; in assay [3], less than 5.00; in assay [4] it was 5.72.

As for `CCNC(=O)Nc1ccc([C@@H]2[C@@H]3CC[C@@H](C[C@@H]3O)N2S(=O)(=O)c2ccc(Cl)cc2)cc1` (racemic), the pIC50 is 5.63 in assay [1], 7.10 in assay [2], 5.32 in assay [3] and 6.35 in assay [4].

As for `O=S(=O)(c1ccc(Cl)cc1)N1[C@H]2CC[C@H]([C@H](O)C2)[C@H]1c1ccccc1Cl` (racemic), the negative-log IC50 (pIC50) in assay [1] is less than 5.00; in assay [2], 6.37; in assay [3], less than 5.00; in assay [4], 5.65.

Regarding `COCC(=O)Nc1ccc([C@@H]2[C@@H]3CC[C@@H](CC3=O)N2S(=O)(=O)c2ccc(Cl)cc2)cc1` (racemic), the negative-log IC50 (pIC50) in assay [1] is less than 5.00; in assay [2], 5.84; in assay [3], less than 5.00; in assay [4], less than 5.00.

As for `O=S(=O)(c1ccc(Cl)cc1)N1[C@H]2CC[C@H]([C@H](O)C2)[C@H]1c1ccc(C(F)(F)F)cc1`, the figures for the pIC50 in assay [2] and in assay [4] were 6.96 and 6.12, respectively.

On to `O=S(=O)(c1ccc(Cl)cc1)N1[C@H]2CC[C@H]([C@H](O)C2)[C@H]1c1ccc(C(F)(F)F)nc1` (racemic), for which the negative logarithm of the IC50 (pIC50) in assay [1] was less than 5.00; in assay [2], 6.11; in assay [3], less than 5.00; in assay [4], 5.19.

Regarding `N#Cc1ccc([C@@H]2[C@@H]3CC[C@@H](C[C@@H]3O)N2S(=O)(=O)c2ccc(Cl)s2)cn1` (racemic), the pIC50 in assay [1] is 5.52; in assay [2] it was 7.41; in assay [3], 5.47; in assay [4], 6.83.

For the compound `O=S(=O)(c1ccc(Cl)s1)N1[C@H]2CC[C@@H]([C@H]1c1ccc(F)c(F)c1)[C@@H](O)C2` (racemic), the negative logarithm of the IC50 (pIC50) in assay [1] is less than 5.00; in assay [2], 7.13; in assay [3], less than 5.00; in assay [4], 6.40.

Regarding `CCNC(=O)Nc1ccc([C@@H]2[C@@H]3CC[C@@H](CC3=O)N2S(=O)(=O)c2ccc(Cl)cc2)cc1` (racemic), the pIC50 in assay [1] is 5.15; in assay [2], 6.41; in assay [3], 5.07; in assay [4], 5.42.

In the case of `CC(=O)Nc1ccc([C@@H]2[C@@H]3CC[C@@H](C[C@@H]3O)N2S(=O)(=O)c2ccc(Cl)s2)cc1` (racemic), the negative logarithm of the IC50 (pIC50) in assay [1] was 6.29; in assay [2], 7.59; in assay [3], 6.07; in assay [4] it was 7.14.

With `O=C1C[C@@H]2CC[C@H]1[C@@H](c1ccc(F)c(F)c1)N2S(=O)(=O)c1ccc(Cl)s1` (racemic), the pIC50 in assay [1] was less than 5.00; in assay [2], 5.71; in assay [3], less than 5.00; in assay [4], less than 5.00.

Regarding `CCOC(=O)Nc1ccc([C@@H]2[C@@H]3CC[C@@H](C[C@@H]3O)N2S(=O)(=O)c2ccc(Cl)cc2)cc1` (racemic), the pIC50 in assay [1] was 6.54; in assay [2], 7.54; in assay [3], 6.04; in assay [4], 6.72.

For `COc1ccc([C@@H]2[C@@H]3CC[C@@H](C[C@@H]3O)N2S(=O)(=O)c2ccc(Cl)cc2)cn1` (racemic), the pIC50 was less than 5.00 in assay [1], 7.21 in assay [2], less than 5.00 in assay [3] and 6.42 in assay [4].

On to `O=S(=O)(c1ccc(Cl)cc1)N1[C@H]2CC[C@H]([C@H](O)C2)[C@H]1c1ccc(C(F)(F)F)cc1` (racemic), for which the negative logarithm of the IC50 (pIC50) in assay [1] is less than 5.00; in assay [2] it was 6.96; in assay [3] it was less than 5.00; in assay [4] it was 6.12.

Consider `O=S(=O)(c1ccc(Cl)cc1)N1[C@H]2CC[C@H]([C@H](O)C2)[C@H]1c1cc(F)ccc1F` (racemic), for which the pIC50 in assay [1] was 5.11; in assay [2], 6.37; in assay [3] it was 5.11; in assay [4] it was 6.07.

For the compound `O=C1C[C@@H]2CC[C@H]1[C@@H](c1ccc(C(F)(F)F)cc1)N2S(=O)(=O)c1ccccc1Cl` (racemic), the pIC50 in assay [1] was less than 5.00; in assay [2], 5.23; in assay [3] it was less than 5.00; in assay [4] it was less than 5.00.

Regarding `CC(=O)Nc1ccc([C@@H]2[C@@H]3CC[C@@H](C[C@@H]3O)N2S(=O)(=O)c2ccc(Cl)cc2)cc1` (racemic), the pIC50 is 5.92 in assay [1], 7.61 in assay [2], less than 5.89 in assay [3] and 6.87 in assay [4].

`Cc1ccc(S(=O)(=O)N2[C@H]3CC[C@@H]([C@H]2c2ccc(C#N)nc2)[C@@H](O)C3)cc1` (racemic): the negative logarithm of the IC50 (pIC50) in assay [1] was less than 5.00; in assay [2] it was 6.80; in assay [3], less than 5.00; in assay [4], 5.96.

Consider `O=S(=O)(c1ccc(Cl)cc1)N1[C@H]2CC[C@@H]([C@H]1c1ccc(OC(F)(F)F)cc1)[C@@H](O)C2` (racemic), for which the pIC50 was less than 5.00 in assay [1], 7.43 in assay [2], less than 5.00 in assay [3] and 6.82 in assay [4].

In the case of `O=S(=O)(c1ccc(Cl)cc1)N1[C@H]2CC[C@@H]([C@H]1c1ccc(Cl)cc1)[C@@H](O)C2` (racemic), the pIC50 was less than 5.70 in assay [1], 7.34 in assay [2], less than 5.70 in assay [3] and 6.83 in assay [4].
